Experiment [1] relates to Streptococcus sp. 'group A'. The experiment can be described thus: growth inhibition of control SK(-) GAS strain, dose response, counter-screen for streptokinase expression inhibitor project, luminescence, kanamycin, BacTiterGlo, confirmation (AID 1900). Format: functional, organism-based. A general note: Counterscreens check selectivity or assay interference.
The next experiment concerns Streptococcus. The experiment can be described thus: Group A Streptococcus viability loss, dose response, counter-screen for streptokinase expression inhibitor project, luminescence, BacTiterGlo (AID 1915).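 Note: potency for reduction of bacterial viability or growth.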 It is filed as functional, organism-based.
The nature of experiment [2]: HEp-2 cell cytotoxicity, dose response, cytotoxicity control for RSV inhibitor project, HTS (AID 2410). It is filed as functional. As to conditions: human respiratory syncytial virus.
Experiment [3] is described as follows: inhibitors of intracellular T. cruzi replication, confirmation, NIH3T3 host cells, beta-gal luminescence (AID 2044).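 Note: intracellular parasites grown in NIH/3T3 mouse fibroblasts as host cells; luminescent beta-galactosidase reporter signal from transgenic T. cruzi replicating inside host cells; inhibitors lower the luminescence signal.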 It is filed as functional, cell-based.
Experiment [4] can be described thus: cytotoxicity toward NIH3T3 fibroblasts, dose response, counter-screen, cell-based, ATP luminescence, mouse fibroblasts (AID 2010).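 Note: cells exposed to compound for about 90 hours before reading.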 Format: functional.
A further experiment addresses T1, Streptokinase A (Streptococcus pyogenes serotype M1, UniProt P10520).
T1 sequence (P10520 whole entry): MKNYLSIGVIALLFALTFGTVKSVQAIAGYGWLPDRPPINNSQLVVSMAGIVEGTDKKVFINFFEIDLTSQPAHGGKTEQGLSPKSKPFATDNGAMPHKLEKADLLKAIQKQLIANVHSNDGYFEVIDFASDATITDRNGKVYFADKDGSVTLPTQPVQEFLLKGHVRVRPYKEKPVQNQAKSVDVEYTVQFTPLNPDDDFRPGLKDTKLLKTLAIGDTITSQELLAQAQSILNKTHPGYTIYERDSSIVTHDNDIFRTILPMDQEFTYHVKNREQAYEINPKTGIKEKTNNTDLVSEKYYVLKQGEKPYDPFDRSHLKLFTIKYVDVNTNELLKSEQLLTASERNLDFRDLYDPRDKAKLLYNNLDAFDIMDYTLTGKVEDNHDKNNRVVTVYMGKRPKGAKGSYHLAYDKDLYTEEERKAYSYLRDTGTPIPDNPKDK
Description: S. pyogenes streptokinase expression inhibitors, potency, dose response, plasminogen activation absorbance, OD405 (AID 1914).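 Note: secreted streptokinase activity via plasminogen activation per viability signal from cell pellet.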 Format: functional, Streptococcus pyogenes M1 GAS.

Experiment [5] can be described thus: Luminescence Cell-Based Dose Confirmation HTS to Identify Activators of 5'UTR Stem-Loop Driven Alpha-Synuclein mRNA Translation in H4 Neuroglioblastoma Cells. [Related pubchem assays: 1829 (Project Summary), 1814 (Primary HTS)]. It is filed as functional.
Experiment [6] can be described thus: Luminescence Cell-Based Dose Response HTS to Identify Activators of Luciferase Translation or Activity in H4 […] Cells. [Related pubchem assays: 1829 (Project Summary), 1814 (Primary HTS)]. Format: functional.
A further experiment has as its system H4. The experiment can be described thus: Luminescence Cell-Based Dose Response HTS to Identify Activators of 5'UTR Stem-Loop Driven Prion Protein mRNA Translation in H4 Neuroglioblastoma Cells. [Related pubchem assays: 1829 (Project Summary), 1814 (Primary HTS)]. It is filed as functional. The note with it: Homo sapiens.
Experiment [7] is described as follows: microbe, parasite or virus in culture. Format: functional. The note with it: Mycobacterium tuberculosis.
Experiment [8] in a line: growth suppression of PTEN-null colon cells, dose response, cell-based, HCT116 PTEN knockout (AID 1047).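 Note: HCT116 colon tumor cells with PTEN knocked out; cells exposed to compound for 60 hours before readout; potency for loss of cell viability measured by luminescence.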 Format: functional.
Experiment [9] can be described thus: growth suppression of beta-catenin-knockout colon cells, dose response, cell-based, HCT116, human colon tumor (AID 1045).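 Note: HCT116 colon tumor cells with beta catenin knocked out; cells exposed to compound for 60 hours.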 It is filed as functional.
The nature of experiment [10]: NIH-3T3 fibroblast cytotoxicity, dose response, cytotoxicity control, cell-based, fluorescence, Alamar Blue, secondary assay (AID 2327).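 Note: NIH-3T3 mouse fibroblasts cultured with fluconazole at 8 µg/mL.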 Format: functional.
Experiment [11] can be described thus: C. albicans growth with fluconazole, confirmation, fluorescence, retest (AID 2467). Format: functional, cell-based.
The target in experiment [12] is T2, Ubiquitin-conjugating enzyme E2 N (Homo sapiens, UniProt P61088).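 Note: Dose-response confirmation in a TR-FRET assay detecting UBC13-driven polyubiquitin chain formation, inhibition measured.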
T2 sequence (P61088 whole entry): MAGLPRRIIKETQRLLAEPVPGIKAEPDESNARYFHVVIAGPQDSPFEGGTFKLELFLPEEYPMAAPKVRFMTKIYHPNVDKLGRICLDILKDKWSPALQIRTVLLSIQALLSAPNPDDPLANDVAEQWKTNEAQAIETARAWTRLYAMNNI
It is filed as functional.

Experiment [13] addresses T3, Rac GTPase-activating protein 1 (Homo sapiens, UniProt Q9H0H5).
T3 sequence (Q9H0H5 whole entry): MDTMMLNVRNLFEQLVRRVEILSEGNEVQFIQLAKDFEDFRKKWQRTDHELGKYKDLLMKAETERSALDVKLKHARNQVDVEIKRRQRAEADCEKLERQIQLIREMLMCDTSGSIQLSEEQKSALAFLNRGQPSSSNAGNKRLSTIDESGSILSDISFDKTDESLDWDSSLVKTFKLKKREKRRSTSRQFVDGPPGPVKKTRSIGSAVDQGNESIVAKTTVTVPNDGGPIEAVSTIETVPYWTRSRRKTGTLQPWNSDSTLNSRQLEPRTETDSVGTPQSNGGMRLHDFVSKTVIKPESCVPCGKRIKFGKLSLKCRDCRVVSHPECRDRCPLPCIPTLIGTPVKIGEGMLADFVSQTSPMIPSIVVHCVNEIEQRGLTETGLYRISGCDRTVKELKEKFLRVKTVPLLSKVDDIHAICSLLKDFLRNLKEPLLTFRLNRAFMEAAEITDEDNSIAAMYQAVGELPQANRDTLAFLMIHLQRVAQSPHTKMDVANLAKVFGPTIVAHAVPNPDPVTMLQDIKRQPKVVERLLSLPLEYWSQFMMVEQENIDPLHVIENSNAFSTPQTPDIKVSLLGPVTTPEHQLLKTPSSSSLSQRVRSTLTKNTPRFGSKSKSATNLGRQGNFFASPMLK
Description: MgcRacGAP GTPase-activating activity inhibitors, confirmation, biochemical, ADP Hunter fluorescence, primary and confirmatory (AID 624330). It is filed as functional.

Experiment [14] concerns the target Luciferin 4-monooxygenase (Photinus pyralis, UniProt P08659). Description: firefly luciferase enzyme inhibitors, dose response, biochemical, luminescence (AID 1891).
Experiment [15] in a line: Luminescence Cell-Based Dose Confirmation HTS to Identify Inhibitors of Platelet Dense Granule Release. [Related pubchem assays: 1663 (Primary HTS), 1678 (Summary of Project)]. Format: functional.

SMILES strings stand for the structures. Calls of active or inactive are those of the source. Cut-off read from the data, not from the text of the source, for most assays here: actives have a measured EC50 and inactives only a lower limit.

What is called EC50 is the midpoint of the concentration-response curve. Broadly, the IC50 is the concentration that gives 50% inhibition.

Chain of Luciferin 4-monooxygenase (P08659 whole entry): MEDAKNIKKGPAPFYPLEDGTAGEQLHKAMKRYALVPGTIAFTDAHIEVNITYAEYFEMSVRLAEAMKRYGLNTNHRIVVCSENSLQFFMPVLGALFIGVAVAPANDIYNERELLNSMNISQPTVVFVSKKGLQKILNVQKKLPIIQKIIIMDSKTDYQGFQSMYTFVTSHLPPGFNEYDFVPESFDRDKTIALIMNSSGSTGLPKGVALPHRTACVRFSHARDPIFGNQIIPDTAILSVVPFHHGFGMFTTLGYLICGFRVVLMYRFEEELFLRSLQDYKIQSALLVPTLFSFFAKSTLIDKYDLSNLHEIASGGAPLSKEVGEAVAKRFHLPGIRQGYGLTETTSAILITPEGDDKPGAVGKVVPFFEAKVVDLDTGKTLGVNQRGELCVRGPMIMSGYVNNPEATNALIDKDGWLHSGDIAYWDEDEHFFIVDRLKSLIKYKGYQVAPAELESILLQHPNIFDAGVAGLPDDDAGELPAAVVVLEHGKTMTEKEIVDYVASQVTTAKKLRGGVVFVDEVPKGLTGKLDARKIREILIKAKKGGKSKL

With `CC(C)c1ccc2[nH]c(O)c(N=NC(=O)c3cccc(S(=O)(=O)N4CCCCC4)c3)c2c1`, the EC50 in experiment [1] was 4.39 µM (active); with Streptococcus, 110 µM (active); in experiment [3], 0.58 µM (active); in [4], > 60 µM (not active); at Streptokinase A, > 150 µM (not active). In addition, the CC50 in [2] was 7.69 µM (active).

For `Cc1ccc(/C=C/C2=NN(Cc3ccccc3Cl)C(=O)CC2)cc1`, in experiment [2], the CC50 was 16.6 µM (active).

On to `CCOc1ccc(-c2c(=O)n(OCc3ccc([N+](=O)[O-])cc3)c3ccccc3[n+]2[O-])cc1`, for which the EC50 (in [5]; in [6]; in the experiment on H4) was > 120 µM (not active) each time.

As to `N#C/C(=C\c1ccc(-c2ccc(Br)cc2)o1)C(=O)NCCc1c[nH]c2ccccc12`, the CC50 in experiment [7] was > 40 µM (active).

As for `CC12CCC(c3c(C(=O)Nc4nccs4)nn(-c4ccccc4)c31)C2(C)C` (stereo not drawn), the EC50 is 38.1 µM (active) in [8]; 6.56 µM (active) in experiment [1]; > 150 µM (not active) in the experiment with Streptococcus; 24.2 µM (active) in experiment [9]; 28.5 µM (active) at Streptokinase A.

With `O=C1C(/C=N/CCCN2CCCC2=O)=C(O)c2ccccc21`, the EC50 is 14.8 µM (active) in experiment [5], 5.6 µM (active) in experiment [6] and 12.9 µM (active) in the experiment on H4.

In the case of `CCC1=NN2C(=N)/C(=C\c3ccc(OCCOc4ccccc4)c(OC)c3)C(=O)N=C2S1`, the results for the EC50 (in [5]; in experiment [6]; with H4) were 9.45 µM (active), 8.4 µM (active) and 5.43 µM (active), respectively.

Take `COc1ccc(C(=O)N/N=C/C(=O)c2ccccc2)cc1`: the EC50 was 5.67 µM (active) in experiment [5], 1.9 µM (active) in experiment [6] and 6.93 µM (active) in the experiment on H4.

As to `Cc1cc2cc(C)c3nnc(SCC(=O)Nc4ccc(S(=O)(=O)N5CCCCC5)cc4)n3c2cc1C`, the EC50 in [8] is 7.79 µM (active); in experiment [9] it was 7.24 µM (active).

On to `COc1ccc(C2Nc3ccc4ccccc4c3-c3c2c(=O)oc2ccccc32)cc1` (stereo not drawn), for which the EC50 was 9 µM (active) in [8], 0.204 µM (active) in [3], > 60 µM (not active) in experiment [4] and 9.13 µM (active) in experiment [9].

With `Cc1ccccc1-c1nnc(SCc2ccccc2)o1`, the EC50 in experiment [5] was 7.97 µM (active); in experiment [6], 62.5 µM (active).

`CSC(S)=NCc1cccnc1`: in [7], the CC50 is 9.84 µM (active). Also, the EC50 in experiment [10] is > 160 µM (inactive); in experiment [11] it was 1.13 µM (active).

On to `Cc1ccc(C(=O)N2N=C(c3ccc(NS(C)(=O)=O)cc3)CC2c2cccs2)cc1` (stereo not drawn), for which, in experiment [7], the CC50 is > 40 µM (active).

In the case of `CN1CCN(/N=C/c2ccc(Cl)c(Cl)c2)CC1`, the EC50 was 34.9 µM (active) in experiment [5], 31.7 µM (active) in [6] and 2.16 µM (active) in the experiment on H4.

`Cc1c(C(=O)OCC(=O)N2C(C)CCCC2C)oc2ccccc12` (stereo not drawn): the results for the EC50 (in experiment [5]; in [6]; in the experiment with H4) were 14.6 µM (active), 28.7 µM (active) and 72.9 µM (active), respectively.

For `Cc1ccc(-c2nnc(S)n2/N=C/c2c(C)nn(-c3ccccc3)c2C)cc1`, the EC50 in experiment [8] is 25.8 µM (active); in experiment [9] it was 26 µM (active).

For `COCC(=O)O[C@]1(CCN(C)CCCc2nc3ccccc3[nH]2)CCc2cc(F)ccc2[C@@H]1C(C)C`, the CC50 in experiment [7] is 14.2 µM (active). Moreover, in [12], the IC50 is > 20 µM (inactive).

Regarding `COc1ccc(S(=O)(=O)N2CCN(C(=O)c3ccc([N+](=O)[O-])o3)CC2)cc1`, the EC50 in experiment [5] was > 120 µM (not active); in experiment [3], 0.103 µM (active); in experiment [4] it was > 30 µM (not active); in experiment [6] it was 7.51 µM (active); in the experiment with H4 it was 7.96 µM (active).

On to `Nc1ncccc1OCc1ccc(Cl)c(Cl)c1`, for which the CC50 in [2] is 9.61 µM (active).

With `O=C(Cn1c(=O)oc2cc(S(=O)(=O)N3CCCCC3)ccc21)N1CCc2ccccc21`, the figures for the EC50 in experiment [8] and in [9] were 18.4 µM (active) and 16.9 µM (active), respectively.

On to `CC(C)c1ccc2c(c1)CCC1C(C)(CN)CCCC21C` (stereo not drawn), for which the CC50 in [7] is 7.48 µM (active). In addition, the EC50 in [10] is 9.63 µM (inconclusive); in [11], > 38 µM (not active).

Take `CCn1cc(SCC(=O)N2CCOCC2)c2ccccc21`: the results for the EC50 (in experiment [5]; in [6]; with H4) were 5.63 µM (active), 82.1 µM (active) and > 120 µM (not active), respectively.

`CCOC(=O)c1sc(NC(=O)Nc2ccc(Cl)cc2)nc1C`: the EC50 in experiment [8] was 63.5 µM (active); in [9] it was 80.8 µM (active).

As for `O=C(CSCC(=O)N1CCOCC1)Nc1nc(-c2ccc3c(c2)OCO3)cs1`, the EC50 in experiment [5] is 86.3 µM (active); in experiment [6], 56.1 µM (active); in the experiment on H4, > 120 µM (not active).

For the compound `CN1C(=O)C(CC(=O)Nc2ccccc2F)N(NC(=O)c2ccc(Br)cc2)C1=S` (stereo not drawn), in experiment [2], the CC50 was 6.39 µM (active).

Regarding `N/N=C(\Cc1cscn1)c1ccc(O)cc1O`, in [13], the IC50 is 53.3 µM (active). The EC50 was > 112 µM (not active) in experiment [14] and 62.6 µM (active) in [15].

Regarding `O=C(NCc1ccccn1)C(=O)Nc1nc(C23CC4CC(CC(C4)C2)C3)cs1`, the CC50 in [7] is 36 µM (active). Moreover, the EC50 in experiment [1] is 1.66 µM (active); in the experiment with Streptococcus it was 6.91 µM (active).

The values above are taken from ChEMBL document CHEMBL1201862, “PubChem BioAssay data set” (2004).
